Earlier results, collected in patent publication US5064812A, “Metal complexes of N-acetyl-glucosaminyl-N-acetyl-muramoyl-L-alanyl-D-isoglutaminyl-(L)-mes o-diamino-pimelyl-(D-amide)-(L)-D-alanyl-D-alanine and their use in pharmaceuticals” (Sour Pliva, priority 1986, dated 1991).

Key:
[1] = prior art literature
[2] = prior art literature; remark: listed apart in the source

**Q.** For “N-acetyl-glucosaminyl-N-acetyl-muramoyl-L-alanyl-D-isoglutaminyl-(L)-meso- diamino-pimelyl-(D-amide)-(L)-D-alanyl-D-alanine [PMG]”, which immunostimulating activity [1] is on record?
**A.** The immunostimulating activity was “significant immunostimulating”.

**Q.** What about the antimetastatic activity [2] of the same substance?
**A.** The antimetastatic activity was “antimetastatic activity”.
